Data published in patent US4874779A, “Mitomycin phosphate derivatives” (priority 1988, dated 1989).
Structures can show the parent of a compound that is named as a salt. Where two headings read alike, the source gives them in different places.

Key:
human lung tumor H2981 = experiment: Antitumor activity against subcutaneous human lung tumor H2981 xenograft in Balb C nu/nu female mice; assay type: in vivo; conditions: for time required to reach an average tumor volume of 750 mm^3: IIa 0.2 ml of 1 mg/ml, V 0.2 ml of 3 mg/ml, i.p. days 15, 21, 31, 37, untreated control 27 days
Method: The arrows indicate the days on which drugs were given.
Antitumor activity of the compound of Example 1 (V) was evaluated in Balb C nu/nu female mice (4-6 weeks old, purchased from Life Sciences, St. Petersburg, Fl) implanted subcutaneously with a xenograft of human lung tumor H2981 in the right hind flank. Compound IIa served as positive control. Drug treatment was initiated on day 15 (day 0 being the day of tumor implant) when the tumors were approximately 100 mm^3 in volume. 0.2 Ml of the test compounds (1 mg/ml for IIa and 3 mg/ml for V in phosphate-buffered saline) were injected intraperitoneally on days 15, 21, 31, and 37. The results are graphically shown in FIG. 1 and indicate that the time required to reach an average tumor volume of 750 mm^3 was 45 days in mice treated with IIa, 63 days in mice treated with V, and 27 days in the untreated control group.

[1] = Relative toxicity in Balb C nu/nu mice; assay type: in vivo; conditions: for LD50 / MTD at 600 h: mouse, in vivo, ip; for LD50: two equal doses spaced 4 days apart; for MTD at 600 h: 4 equal doses over a 25 day period, read-out: total amount tolerated
Method: The relative toxicities of IIa and V were determined in Balb C nu/nu mice. […] Total amounts of up to 40 mg/kg of IIa and 100 mg/kg of V were tolerated if given in 4 equal doses over a 25 day period.

[2] = test system: human lung tumor cell line H2981; experiment: Cytotoxicity to H2981 cells by inhibition of 3H-Thy incorporation; assay type: cell-based; conditions: for cytotoxic activity (in words): without alkaline phosphatase pre-treatment; for IC50: Homo sapiens
Method: Cytotoxicity of compounds V, IIa, and mitomycin C was determined using human lung tumor cell line H2981. Thus a suspension of H2981 cells in Iscove's medium (IMDM) containing 10% fetal calf serum were plated into 96-well microtiter plates (10,000 cells/well). After 1 hr, the medium was removed, a pH 7.2 phosphate buffered saline solution (PBS) of the drug was added, and incubation at 37° C. was commenced for 1 hour. The cells were then washed twice, and incubation was continued an additional 17 hours, followed by a 6 hour pulse with ^3 H-Thy (1.0 μCi/well). The plates were frozen at -70° C. to detach the cells, and the cells were harvested onto glass fiber discs. The filters were counted on a Beckman 3701 scintillation counter. Inhibition of ^3 H-Thy incorporation was used as an indicator for cytotoxic effects.

SMILES	time required to reach an average tumor volume of 750 mm^3 (human lung tumor H2981) [days]	LD50 [1] [mg/kg]	MTD at 600 h [1] [mg/kg]	cytotoxic activity (in words) ([2]; H2981 cells)	IC50 ([2]; H2981, 1 h, pH 7.2, read-out: IC50 (cytotoxicity, inhibition of 3H-Thy incorporation)) [nM]	IC50 ([2]; H2981 cells, 1 hour drug exposure in pH 7.2 PBS at 37° C., 17 hours further incubation, 6 hour 3H-Thy pulse, read-out: IC50 (cytotoxicity, inhibition of 3H-Thy incorporation)) [nM]	antitumor effect compared with the corresponding alcohol (IIa) (human lung tumor H2981; H2981 xenograft, i.p.)	tolerability of prodrug (in words) ([1]; relative to IIa)	cytotoxicity after pre-treatment with alkaline phosphatase (in words) ([2]; H2981 cells, V pre-treated with alkaline phosphatase)
COC12C(COC(N)=O)C3=C(C(=O)C(C)=C(NCCO)C3=O)N1CC1NC12 (centres unmarked) [IIa]	45	45	≥ 40	highly cytotoxic	~1000	–	–	–	–
CO[C@@]12[C@H](COC(N)=O)C3=C(C(=O)C(C)=C(N)C3=O)N1C[C@@H]1N[C@@H]12 [mitomycin C]	–	–	–	highly cytotoxic	–	~1000	–	–	–
COC12C(COC(N)=O)C3=C(C(=O)C(C)=C(NCCOP(=O)(O)O)C3=O)N1CC1NC12 (centres unmarked) [Example 1, 9a-Methoxy-7-[[(phosphonooxy)ethyl]amino]mitosane disodium salt]	63	90	≤ 100	A small amount of cytotoxic activity	–	–	stronger antitumor effect than the corresponding alcohol	significantly more prodrug was tolerated because of its reduced toxicity	cytotoxicity comparable to that of IIa and mitomycin C
